One compound from patent US20240197651A1, “DEXMECAMYLAMINE AND USES THEREOF” (Atacama Therapeutics, Inc., priority 2021, published 2024) can be followed below.

Assay type in all cases: in vivo
For assay [1], the system named is patients with wrinkles. The assay is described as follows: Treatment of wrinkles. On the procedure:
The compound of the disclosure (e.g., dexmecamylamine substantially free of exo-R-mecamylamine) is administered to patients with wrinkles. […] In some embodiments, the subject produces sebum in an amount of 100 μg/cm^2 and above (e.g., 125, 135, 150, 175, 200 μg/cm^2 or higher).

In assay [2] the test system is patients with sebaceous adenoma. The assay is described as follows: Treatment of sebaceous adenoma. On the procedure:
The compound of the disclosure (e.g., dexmecamylamine substantially free of exo-R-mecamylamine) is administered to patients with sebaceous adenoma. […] In some embodiments, the subject produces sebum in an amount of 100 μg/cm^2 and above (e.g., 125, 135, 150, 175, 200 μg/cm^2 or higher).

The test system of assay [3] is patients with enlarged pores. The assay is described as follows: Treatment of enlarged pores. On the procedure:
The compound of the disclosure (e.g., dexmecamylamine substantially free of exo-R-mecamylamine) is administered to patients with enlarged pores. […] In some embodiments, the compound is dexmecamylamine substantially free of exo-R-mecamylamine, or a pharmaceutically acceptable salt thereof. In some embodiments, the subject produces sebum in an amount of 100 μg/cm^2 and above (e.g., 125, 135, 150, 175, 200 μg/cm^2 or higher).

Assay [4] deals with patients with seborrhea. The assay is described as follows: Treatment of seborrhea. As to the method:
The compound of the disclosure (e.g., dexmecamylamine substantially free of exo-R-mecamylamine) is administered to patients with seborrhea. […] In some embodiments, the subject produces sebum in an amount of 100 μg/cm^2 and above (e.g., 125, 135, 150, 175, 200 μg/cm^2 or higher).

In assay [5] the test system is patients with sebaceous hyperplasia. The assay is described as follows: Treatment of sebaceous hyperplasia. On the procedure:
The compound of the disclosure (e.g., dexmecamylamine substantially free of exo-R-mecamylamine) is administered to patients with sebaceous hyperplasia. […] In some embodiments, the subject produces sebum in an amount of 100 μg/cm^2 and above (e.g., 125, 135, 150, 175, 200 μg/cm^2 or higher).

For assay [6], the system named is patients with sebaceous cyst. The assay is described as follows: Treatment of sebaceous cyst. On the procedure:
The compound of the disclosure (e.g., dexmecamylamine substantially free of exo-R-mecamylamine) is administered to patients with sebaceous cyst. […] In some embodiments, the subject produces sebum in an amount of 100 μg/cm^2 and above (e.g., 125, 135, 150, 175, 200 μg/cm^2 or higher).

In assay [7] the test system is patients with oily skin. The assay is described as follows: Treatment of oily skin. On the procedure:
The compound of the disclosure (e.g., dexmecamylamine substantially free of exo-R-mecamylamine) is administered to patients with oily skin. […] In some embodiments, the subject produces sebum in an amount of 100 μg/cm^2 and above (e.g., 125, 135, 150, 175, 200 μg/cm^2 or higher).

Assay [8] relates to human subjects with hyperhidrosis and oily skin. The experiment in a line: Phase II clinical study, facial sebum production. Conditions: for Average response category at 2 weeks: change in percent of average facial sebum quantity at end of 2-week treatment vs baseline; for Average response category at 4 weeks: change in percent of average facial sebum quantity at end of 4-week treatment vs baseline; for Responders (%): subjects with 20% or greater reduction in sebum quantity following treatment. From the text:
Acne vulgaris is a dermatological condition characterized by increased sebum production, which is driven, in part, by cholinergic signaling within the sympathetic nervous system. Activation of nicotinic receptors on human sebaceous glands is known to increase sebum production and secretion. Dexmecamylamine acts on nicotinic acetylcholine receptors to reduce sympathetic tone through the selective inhibition of presynaptic nicotinic receptors in the sympathetic ganglia. In order to determine the therapeutic efficacy of dexmecamylamine in the treatment of acne and related conditions, the inventors leveraged a Phase II clinical study in 15 human subjects with hyperhidrosis and oily skin (i.e., sebum production of 100 μg/cm^2 or greater (e.g., 125, 135, 150, 175, 200 μg/cm^2 or higher)) that were treated with dexmecamylamine hydrochloride. […] [table]

For assay [9], the system named is patients with acne. The assay is described as follows: Treatment of acne. On the procedure: The compound of the disclosure (e.g., dexmecamylamine substantially free of exo-R-mecamylamine or pharmaceutically acceptable salt thereof) is administered to patients with acne. […] In some embodiments, the compound is dexmecamylamine substantially free of exo-R-mecamylamine, or a pharmaceutically acceptable salt thereof. In some embodiments, the subject produces sebum in an amount of 100 μg/cm^2 and above (e.g., 125, 135, 150, 175, 200 μg/cm^2 or higher). In particular, 4 mg of dexmecamylamine hydrochloride is administered orally twice a day to a subject. Subjects have oily skin (>100 μg/cm^2) as measured on three locations of the face by a Sebumeter® grease spot photometry device and has facial acne vulgaris (including the nose). Efficacy is determined by a comparison of sebum as an absolute change from baseline at 12 weeks. Other measures of efficacy include the absolute change from baseline in inflammatory and non-inflammatory lesion counts at 8 weeks and the percent change from baseline in lesion counts (inflammatory and noninflammatory) at weeks 8 and 12. […] The assessment may include the quantity of lesions, size of lesions, intensity of inflammation, and location of lesions to consider the quality and quantity of lesions.

In assay [10] the test system is patients with sebaceous carcinoma. The experiment in a line: Treatment of sebaceous carcinoma. On the procedure: The compound of the disclosure (e.g., dexmecamylamine substantially free of exo-R-mecamylamine) is administered to patients with sebaceous carcinoma. […] In some embodiments, the subject produces sebum in an amount of 100 μg/cm^2 and above (e.g., 125, 135, 150, 175, 200 μg/cm^2 or higher).

Assay [11] has as its system patients with hidradenitis suppurativa. The assay is described as follows: Treatment of hidradenitis suppurativa. On the procedure: The compound of the disclosure (e.g., dexmecamylamine substantially free of exo-R-mecamylamine) is administered to patients with hidradenitis suppurativa. […] In some embodiments, the subject produces sebum in an amount of 100 μg/cm^2 and above (e.g., 125, 135, 150, 175, 200 μg/cm^2 or higher). In particular, 4 mg of dexmecamylamine hydrochloride is administered orally twice a day to a subject with hidradenitis suppurativa. Efficacy is measured by a change in pain, as measured using a 10-point numerical rating scale, 1 through 10, with 10 being the worst, from baseline to week 12; a change in quality of life using Dermatology Life Quality Index (DLQI) from baseline to week 12; a change in clinical status using the Hurley Staging from baseline to week 12; a change in clinical status using the International Hidradenitis Suppurative Severity Score System (IHS4) from baseline to week 12; a change in clinical status using the Hidradenitis Suppurative Clinical Response (HiSCR) from baseline to week 12; a change in clinical status using the Hidradenitis Suppurative Physician Global Assessment (HS-PGA) from baseline to week 12; a change in clinical status using the Hidradenitis Suppurative Area and Severity Index-Revised (HASI-R) from baseline to week 12; and/or a change in the absolute number of abscesses and inflammatory nodules.

Assay [12] deals with patients with seborrheic dermatitis. The experiment in a line: Treatment of seborrheic dermatitis. As to the method:
The compound of the disclosure (e.g., dexmecamylamine substantially free of exo-R-mecamylamine) is administered to patients with seborrheic dermatitis. […] In some embodiments, the subject produces sebum in an amount of 100 μg/cm^2 and above (e.g., 125, 135, 150, 175, 200 μg/cm^2 or higher).

Take `CN[C@@]1(C)[C@@H]2CC[C@@H](C2)C1(C)C` [dexmecamylamine]: the “symptoms, wrinkles” value in assay [1] was “improved symptoms”. Further, the “symptoms, sebaceous adenoma” value in assay [2] is listed as “improved symptoms”. In assay [3], the “symptoms, enlarged pores” value is “improved symptoms”. The “symptoms, seborrhea” value in [4] is on record as “improved symptoms”. In addition, the “symptoms, sebaceous hyperplasia” value in assay [5] is reported as “improved symptoms”. Further, the “symptoms, sebaceous cyst” value in assay [6] is listed as “improved symptoms”. The “symptoms, oil production by the skin” value in [7] is reported as “improved symptoms”. For the same compound, in assay [8] (2 mg BID), the “Average response category at 2 weeks” value is reported as “Low (Reduction in sebum production of less than 20%.)”; the “Average response category at 4 weeks” value was “Medium^†† (Reduction in sebum production between 20% and 35%.)”; the “Responders (%)” value stood at 80%. Besides, the facial sebum production entry in assay [8] (2 mg or 4 mg BID, four weeks of treatment) is listed as “reduction in facial sebum production”. Besides, in assay [8] (4 mg BID), the “Average response category at 2 weeks” value is “Low (Reduction in sebum production of less than 20%.)”, the “Average response category at 4 weeks” value is given as “High^††† (Reduction in sebum production of greater than 35%.)” and the “Responders (%)” value came to 100%. Besides, the “symptoms of acne (whiteheads, blackheads, papules, pimples, nodules, cysts)” value in [9] was “improved symptoms”. Besides, the “symptoms, sebaceous carcinoma” value in [10] is listed as “improved symptoms”. Further, in assay [11], the “symptoms, hidradenitis suppurativa” value was “improved symptoms”. Also, the “symptoms, seborrheic dermatitis” value in assay [12] is reported as “improved symptoms”.
